Experimental findings from patent US20060263802A1 (priority 2003, published 2006) are described below.

Format in all cases: binding
For assay [1], the system named is human monoclonal antibody CR57.
In assay [2] the test system is human monoclonal antibody CRJA.
Assay [3] has as its system human monoclonal antibody CRJB.
Assay [4] concerns human monoclonal antibody CRJB. The source holds these as a separate data set.
The subject of assay [5] is human monoclonal antibody CR57. This is another data set of the same source.
In assay [6] the test system is human monoclonal antibody CRJA. The source holds these as a separate data set.

In the case of LCGVLGLRLMDGTWV, the “Binding of CR57 to linear peptide (PEPSCAN-ELISA signal)” value (from here on “Binding of CR57 to linear peptide”) in assay [1] worked out at 83. For the same sequence, the “Binding of CRJA (10 μg/ml) to looped/cyclic peptide (PEPSCAN-ELISA)” value in assay [2] turned out to be 106. Besides, the “Binding of CRJB to linear peptide (PEPSCAN-ELISA signal)” value (“Binding of CRJB to linear peptide” below) in assay [3] amounted to 138. For the same sequence, the “Binding of CRJB (10 μg/ml) to looped/cyclic peptide (PEPSCAN-ELISA)” value in assay [4] was 104. Further, in assay [5], the “Binding of CR57 (10 μg/ml) to looped/cyclic peptide (PEPSCAN-ELISA)” value worked out at 128. Moreover, the “Binding of CRJA to linear peptide (PEPSCAN-ELISA signal)” value (shortened to “Binding of CRJA to linear peptide”) in assay [6] came out at 111.
As to SGKCSGVAVSSTYCS, the “Binding of CR57 to linear peptide” value in assay [1] came out at 64. Besides, in assay [2], the “Binding of CRJA (10 μg/ml) to looped/cyclic peptide (PEPSCAN-ELISA signal)” value came out at 85. Besides, the “Binding of CRJB to linear peptide” value in assay [3] came to 121. The “Binding of CRJB (10 μg/ml) to looped/cyclic peptide (PEPSCAN-ELISA signal)” value in assay [4] is reported as 57. Also, the “Binding of CR57 (10 μg/ml) to looped/cyclic peptide (PEPSCAN-ELISA signal)” value in assay [5] came out at 77. For the same sequence, the “Binding of CRJA to linear peptide” value in assay [6] was 65.
Regarding RTVKTTKESLVIISP, the “Binding of CR57 to linear peptide” value in assay [1] was found to be 82. In addition, the “Binding of CRJA (10 μg/ml) to looped/cyclic peptide (PEPSCAN-ELISA signal)” value in assay [2] is given as 88. Also, the “Binding of CRJB to linear peptide” value in assay [3] was 120. Also, the “Binding of CRJB (10 μg/ml) to looped/cyclic peptide (PEPSCAN-ELISA signal)” value in assay [4] is reported as 69. The “Binding of CR57 (10 μg/ml) to looped/cyclic peptide (PEPSCAN-ELISA signal)” value in assay [5] turned out to be 88. Further, the “Binding of CRJA to linear peptide” value in assay [6] stood at 103.
As for IKMNGFTCTGVVTEA, the “Binding of CR57 to linear peptide” value in assay [1] was 68. For the same sequence, the “Binding of CRJA (10 μg/ml) to looped/cyclic peptide (PEPSCAN-ELISA signal)” value in assay [2] came to 99. Besides, the “Binding of CRJB to linear peptide” value in assay [3] was 108. Also, in assay [4], the “Binding of CRJB (10 μg/ml) to looped/cyclic peptide (PEPSCAN-ELISA signal)” value is listed as 86. Also, the “Binding of CR57 (10 μg/ml) to looped/cyclic peptide (PEPSCAN-ELISA signal)” value in assay [5] is recorded as 93. Also, the “Binding of CRJA to linear peptide” value in assay [6] is listed as 88.
In the case of LDPYDRSLHSRVFPS, the “Binding of CR57 to linear peptide” value in assay [1] is reported as 99. Moreover, the “Binding of CRJA (10 μg/ml) to looped/cyclic peptide (PEPSCAN-ELISA signal)” value in assay [2] is listed as 98. In assay [3], the “Binding of CRJB to linear peptide” value worked out at 142. In assay [4], the “Binding of CRJB (10 μg/ml) to looped/cyclic peptide (PEPSCAN-ELISA signal)” value is 83. In addition, in assay [5], the “Binding of CR57 (10 μg/ml) to looped/cyclic peptide (PEPSCAN-ELISA signal)” value turned out to be 88. Besides, in assay [6], the “Binding of CRJA to linear peptide” value is given as 113.
Consider ADPSTVFKDGDEAED, for which the “Binding of human monoclonal antibody CR57 to linear peptide (PEPSCAN-ELISA signal)” value in assay [1] turned out to be 147. In addition, the “Binding of CRJA to looped/cyclic peptide (PEPSCAN-ELISA signal)” value in assay [2] is 101. The “Binding of human monoclonal antibody CRJB to linear peptide (PEPSCAN-ELISA signal)” value in assay [3] was found to be 152. Further, the “Binding of CRJB to looped/cyclic peptide (PEPSCAN-ELISA signal)” value in assay [4] is 72. Moreover, the “Binding of CR57 to looped/cyclic peptide (PEPSCAN-ELISA signal)” value in assay [5] was determined as 118. In addition, in assay [6], the “Binding of human monoclonal antibody CRJA to linear peptide (PEPSCAN-ELISA signal)” value is on record as 101.
Take DKLGPWSPIDIHHLS: the “Binding of CR57 to linear peptide” value in assay [1] worked out at 62. In addition, the “Binding of CRJA (10 μg/ml) to looped/cyclic peptide (PEPSCAN-ELISA signal)” value in assay [2] is listed as 89. For the same sequence, in assay [3], the “Binding of CRJB to linear peptide” value is on record as 103. Moreover, the “Binding of CRJB (10 μg/ml) to looped/cyclic peptide (PEPSCAN-ELISA signal)” value in assay [4] was 70. In addition, the “Binding of CR57 (10 μg/ml) to looped/cyclic peptide (PEPSCAN-ELISA signal)” value in assay [5] amounted to 104. Besides, the “Binding of CRJA to linear peptide” value in assay [6] came to 78.
For the sequence VHPLADPSTVFKDGD, the “Binding of human monoclonal antibody CR57 to linear peptide (PEPSCAN-ELISA signal)” value in assay [1] amounted to 98. Further, the “Binding of CRJA to looped/cyclic peptide (PEPSCAN-ELISA signal)” value in assay [2] is recorded as 99. The “Binding of human monoclonal antibody CRJB to linear peptide (PEPSCAN-ELISA signal)” value in assay [3] amounted to 138. The “Binding of CRJB to looped/cyclic peptide (PEPSCAN-ELISA signal)” value in assay [4] is 79. Moreover, the “Binding of CR57 to looped/cyclic peptide (PEPSCAN-ELISA signal)” value in assay [5] is listed as 107. Further, in assay [6], the “Binding of human monoclonal antibody CRJA to linear peptide (PEPSCAN-ELISA signal)” value was 111.
With PRLGMSCDIFTNSRG, in assay [1], the “Binding of CR57 to linear peptide” value was 72. For the same sequence, in assay [2], the “Binding of CRJA (10 μg/ml) to looped/cyclic peptide (PEPSCAN-ELISA signal)” value amounted to 96. Moreover, in assay [3], the “Binding of CRJB to linear peptide” value turned out to be 112. The “Binding of CRJB (10 μg/ml) to looped/cyclic peptide (PEPSCAN-ELISA signal)” value in assay [4] came out at 89. For the same sequence, the “Binding of CR57 (10 μg/ml) to looped/cyclic peptide (PEPSCAN-ELISA signal)” value in assay [5] is on record as 87. For the same sequence, the “Binding of CRJA to linear peptide” value in assay [6] turned out to be 108.
On to SCPNNLVVEDEGCTN, for which the “Binding of CR57 to linear peptide” value in assay [1] was 83. For the same sequence, the “Binding of CRJA (10 μg/ml) to looped/cyclic peptide (PEPSCAN-ELISA signal)” value in assay [2] stood at 85. The “Binding of CRJB to linear peptide” value in assay [3] was 114. Moreover, the “Binding of CRJB (10 μg/ml) to looped/cyclic peptide (PEPSCAN-ELISA signal)” value in assay [4] is on record as 69. In addition, the “Binding of CR57 (10 μg/ml) to looped/cyclic peptide (PEPSCAN-ELISA signal)” value in assay [5] was found to be 82. Further, the “Binding of CRJA to linear peptide” value in assay [6] was 88.
With NGVFFNGIILGPDGN, the “Binding of CR57 to linear peptide” value in assay [1] is listed as 66. In addition, in assay [2], the “Binding of CRJA (10 μg/ml) to looped/cyclic peptide (PEPSCAN-ELISA)” value is reported as 46. Moreover, the “Binding of CRJB to linear peptide” value in assay [3] was found to be 117. The “Binding of CRJB (10 μg/ml) to looped/cyclic peptide (PEPSCAN-ELISA)” value in assay [4] amounted to 85. Further, the “Binding of CR57 (10 μg/ml) to looped/cyclic peptide (PEPSCAN-ELISA)” value in assay [5] was found to be 58. In assay [6], the “Binding of CRJA to linear peptide” value was 62.
Turning to SVADLDPYDRSLHSR, the “Binding of CR57 to linear peptide” value in assay [1] came out at 49. Further, the “Binding of CRJA (10 μg/ml) to looped/cyclic peptide (PEPSCAN-ELISA signal)” value in assay [2] was 83. For the same sequence, in assay [3], the “Binding of CRJB to linear peptide” value was found to be 106. Besides, the “Binding of CRJB (10 μg/ml) to looped/cyclic peptide (PEPSCAN-ELISA signal)” value in assay [4] is recorded as 71. Besides, in assay [5], the “Binding of CR57 (10 μg/ml) to looped/cyclic peptide (PEPSCAN-ELISA signal)” value worked out at 58. The “Binding of CRJA to linear peptide” value in assay [6] amounted to 92.
